From US5166166A, “3-dicyclohexylaminosydnone imines, process for their preparation and their use” (Cassella Aktiengesellschaft, priority 1990, dated 1992)

Tested on: spiral strips of the pulmonary artery of the guinea-pig
Assay: relaxing action on potassium-depolarised, CaCl2-contracted spiral strips of the pulmonary artery (modified method of Godfraind and Kaba and of Schuman et al.)
Type: cell-based
Settings: for IC50: Cavia porcellus, guinea-pig pulmonary artery strips, 40 mmol/l potassium, contraction by 0.5 mmol/l CaCl2, cumulative addition, average of 4 to 6 vessel strips, read-out: IC50 (concentration of the test substance which inhibits the contraction by 50%); for Duration of action: time needed after addition of the test substance until the starting value is obtained again
Description: The pharmacological action of the compounds of the formula I was determined by a modified method of Godfraind and Kaba (Arch. Int. Pharmacodyn. Ther. 196, (Suppl) 35 to 49, 1972) and of Schuman et al. (Naunyn-Schmiedeberg's Arch. Pharmacol. 289, 409 to 418, 1975). In this connection, spiral strips of the pulmonary artery of the guinea-pig are depolarised with 40 mmol/l of potassium after equilibration in calcium-free Tyrode solution. An addition of 0.5 mmol/l of CaCl2 then induces a contraction. The relaxing action of the test substance is determined by cumulative addition in 1/2 log 10 stepped concentrations. From the concentration-effect curve (abscissa: -log mol/l of test substance, ordinate: % inhibition of the maximum contraction, average value of 4 to 6 vessel strips), the concentration of the test substance is determined which inhibits the contraction by 50% (=IC50, mol/l). The duration of action of the test substance is given by the time which is needed after the addition of the test substance until the starting value is obtained again.

| SMILES | IC50 | Duration of action |
| --- | --- | --- |
| Cl.N=c1c[n+](N(C2CCCCC2)C2CCCCC2)[n-]o1 [3-Dicyclohexylaminosydnone imine hydrochloride] | 0.4 µM | 270 min |
| Cl.N=c1c[n+](N2CCOCC2)[n-]o1 [SIN-1, 3Morpholinosydnone imine hydrochloride, reference compound] | 1 µM | 90 min |

Further lines, with some results ahead:

| IC50 | SMILES | Duration of action |
| --- | --- | --- |
| 300 µM | CCOC(=O)[N-]c1cn(N2CCOCC2)n[o+]1 [Molsidomine, NEthoxycarbonyl-3-morpholinosydnone imine, reference compound] | 120 min |
| 3 µM | COc1ccc(C(=O)[N-]c2c[n+](N(C3CCCCC3)C3CCCCC3)no2)cc1 [N-p-Anisoyl-3-dicyclohexylaminosydnone imine] | 300 min |
| 5 µM | CC(C)(C)C(=O)[N-]c1c[n+](N(C2CCCCC2)C2CCCCC2)no1 [N-Pivaloyl-3-dicyclohexylaminosydnone imine] | 310 min |
